Data on 36 compounds can be found in patent publication US12435057B2, “Triazole carboxylic acids as LPA antagonists” (BRISTOL-MYERS SQUIBB COMPANY, priority 2019, dated 2025).

Where a name gives a salt, the structure may show the parent alone.

The target of one assay is T1, human LPA1 (Homo sapiens, UniProt Q92633).
T1 construct: expressed in transfected cells; host or cells: Chinese hamster ovary (CHO) cells
T1 sequence (Q92633 whole entry): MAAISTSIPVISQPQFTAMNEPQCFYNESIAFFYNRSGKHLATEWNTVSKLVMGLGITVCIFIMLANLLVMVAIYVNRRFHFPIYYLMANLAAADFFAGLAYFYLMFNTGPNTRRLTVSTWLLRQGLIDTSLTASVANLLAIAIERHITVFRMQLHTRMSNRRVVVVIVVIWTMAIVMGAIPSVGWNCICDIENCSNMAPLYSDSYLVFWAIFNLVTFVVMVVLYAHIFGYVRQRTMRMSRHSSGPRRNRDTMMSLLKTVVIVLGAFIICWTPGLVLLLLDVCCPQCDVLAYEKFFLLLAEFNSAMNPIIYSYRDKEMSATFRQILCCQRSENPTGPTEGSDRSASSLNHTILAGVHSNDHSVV
Briefly: LPA1 functional antagonist assay (calcium flux). The conditions noted are these: CHO cells overexpressing human LPA1; inhibition of calcium flux induced by 10 nM LPA; read-out: hLPA1 IC50. Format: cell-based. The procedure:
The effectiveness of compounds of the present invention as LPA1 inhibitors can be determined in an LPA1 functional antagonist assay as follows: • Chinese hamster ovary cells overexpressing human LPA1 were plated overnight (15,000 cells/well) in poly-D-lysine coated 384-well microplates (Greiner bio-one, Cat #781946) in DMEM/F12 medium (Gibco, Cat #11039). Following overnight culture, cells were loaded with calcium indicator dye (AAT Bioquest Inc, Cat #34601) for 30 minutes at 37° C. The cells were then equilibrated to room temperature for 30 minutes before the assay. Test compounds solubilized in DMSO were transferred to 384 well non-binding surface plates (Corning, Cat #3575) using the Labcyte Echo acoustic dispense and diluted with assay buffer [[…] with calcium/magnesium (Gibco Cat #14025-092), 20 mM HEPES (Gibco Cat #15630-080) and 0.1% fatty acid free BSA (Sigma Cat #A9205)] to a final concentration of 0.5% DMSO. Diluted compounds were added to the cells by FDSS6000 (Hamamatsu) at final concentrations ranging from 0.08 nM to 5 μM. and were then incubated for 20 min at room temperature at which time LPA (Avanti Polar Lipids Cat #857130C) was added at final concentrations of 10 nM to stimulate the cells. The compound IC50 value was defined as the concentration of test compound which inhibited 50% of the calcium flux induced by LPA alone. IC50 values were determined by fitting data to a 4-parameter logistic equation (GraphPad Prism, San Diego CA). b. In Vivo Assays LPA Challenge with Plasma Histamine Evaluation.
Background: Calcium flux is commonly read through the fluorescence of an indicator in the cells.
Broadly, the IC50 is the midpoint of a concentration-inhibition curve. As to `Cc1nc(-c2nnn(C)c2COC(=O)N(C)C2CCCC2)ccc1O[C@@H]1CC[C@H]2C(C(=O)O)[C@@H]12` (stereo partly drawn) [Example 62], the IC50 turned out to be 145 nM.

For `CCCCCN(C)C(=O)OCc1c(-c2ccc(O[C@@H]3COC[C@@H](C(=O)O)C3)c(C)n2)nnn1C` [Example 19], the IC50 was found to be 151 nM.

As for `Cc1nc(-c2nnn(C)c2COC(=O)N(C)CC2CCCC2)ccc1O[C@@H]1COC[C@@H](C(=O)O)C1` [Example 22A], the IC50 stood at 160 nM.

As to `Cc1nc(-c2nnn(C)c2COC(=O)N(C)CC2CCC2)ccc1O[C@H]1C[C@H]2C[C@H]2[C@H](C(=O)O)C1` (racemic) [Example 2, (±)-(1R,2R,4S,6R)-4-((6-(5-((((cyclobutylmethyl)(methyl)carbamoyl)oxy)methyl)-1-methyl-1H-1,2,3-triazol-4-yl)-2-methylpyridin-3-yl)oxy) bicyclo[4.1.0]heptane-2-carboxylic Acid], the IC50 stood at 26 nM.

Regarding `CN(C(=O)OCc1c(-c2ccc(O[C@@H]3CC[C@H]4C(C(=O)O)[C@@H]34)cn2)nnn1C)C1CCCC1` (stereo partly drawn) [Example 71], the IC50 worked out at 114 nM.

As to `Cc1nc(-c2nnn(C)c2COC(=O)N(C)CC2CCC2)ccc1O[C@H]1C[C@@H]2C[C@@H]2[C@@H](C(=O)O)C1` (single isomer, unassigned) [Example 4], the half-inhibitory concentration (IC50) turned out to be 907 nM.

Regarding `Cc1nc(-c2nnn(C)c2CNC(=O)OC2CCCC2)ccc1O[C@@H]1CCC2C(C(=O)O)C21` (stereo partly drawn) [Example 55], the IC50 is 83 nM.

Consider `Cc1nc(-c2nnn(C)c2COC(=O)N(C)CC2CCC2)ccc1O[C@@H]1CC[C@H]2[C@@H](C(=O)O)[C@H]21` (racemic) [Example 49, (±)-(1S,2R,5R,6R)-2-((6-(5-((((Cyclobutylmethyl)(methyl)carbamoyl)oxy)methyl)-1-methyl-1H-1,2,3-triazol-4-yl)-2-methylpyridin-3-yl)oxy)bicyclo[3.1.0]hexane-6-carboxylic Acid], for which the IC50 came out at 162 nM.

Consider `Cc1nc(-c2nnn(C)c2COC(=O)N(C)CC2CCC2)ccc1O[C@H]1COC[C@@H](C(=O)O)C1` [Example 32], for which the IC50 amounted to 348 nM.

In the case of `Cc1nc(-c2nnn(C)c2COC(=O)N(C)CC2CCC2)ccc1O[C@H]1CC2C[C@H]2[C@H](C(=O)O)C1` (single isomer, unassigned) [Example 5], the IC50 worked out at 28 nM.

For `Cc1nc(-c2nnn(C)c2CNc2noc(CC3CC3)n2)ccc1O[C@H]1C[C@H](C(=O)O)[C@@H]2C[C@@H]21` [Example 15], the IC50 came out at 1050 nM.

For `Cc1nc(-c2nnn(C)c2COC(=O)N(C)CC(C)C)ccc1O[C@@H]1CC[C@H]2C(C(=O)O)[C@@H]12` (stereo partly drawn) [Example 60], the half-maximal inhibitory concentration (IC50) was found to be 313 nM.

In the case of `Cc1nc(-c2nnn(C)c2Cn2ncc(CC3CCCC3)n2)ccc1O[C@H]1COC[C@H](C(=O)O)C1` [Example 27], the IC50 worked out at 110 nM.

Regarding `Cc1nc(-c2nnn(C)c2COC(=O)N(C)CCC(C)C)ccc1O[C@@H]1COC[C@@H](C(=O)O)C1` [Example 20], the half-inhibitory concentration (IC50) was determined as 222 nM.

As to `Cc1nc(-c2nnn(C)c2COC(=O)N(C)CC2CCC2)ccc1O[C@@H]1C[C@@H]2C[C@@H]2[C@H](C(=O)O)C1` (single isomer, unassigned) [Example 8], the IC50 came out at 26 nM.

Regarding `Cc1nc(-c2nnn(C)c2COC(=O)N(C)C2CCC2)ccc1O[C@@H]1CC[C@H]2C(C(=O)O)[C@@H]12` (stereo partly drawn) [Example 61], the IC50 stood at 98 nM.

For the compound `CN(C(=O)OCc1c(-c2ccc(O[C@@H]3C[C@H](C(=O)O)C[C@@H]4C[C@@H]43)cn2)nnn1C)C1CCCC1` (racemic) [Example 72, (±)-(1 S,3R,5R,6S)-5-((6-(5-(((Cyclopentyl(methyl)carbamoyl)oxy)methyl)-1-methyl-1H-1,2,3-triazol-4-yl)pyridin-3-yl)oxy)bicyclo[4.1.0]heptane-3-carboxylic Acid], the IC50 stood at 80 nM.

With `CCCCCOC(=O)Nc1c(-c2ccc(O[C@H]3COC[C@H](C(=O)O)C3)c(C)n2)nnn1C` (racemic) [Example 23, (±)-trans-5-((2-methyl-6-(1-methyl-5-(((pentyloxy)carbonyl)amino)-1H-1,2,3-triazol-4-yl)pyridin-3-yl)oxy)tetrahydro-2H-pyran-3-carboxylic Acid, TFA Salt], the IC50 was 157 nM.

`Cc1nc(-c2nnn(C)c2CNC(=O)OCc2ccccc2)ccc1O[C@@H]1CCC2C(C(=O)O)C21` (stereo partly drawn) [Example 53]: the IC50 amounted to 16 nM.

As to `Cc1nc(-c2nnn(C)c2COC(=O)N(C)CC2CCC2)ccc1O[C@@H]1C[C@@H]2C[C@@H]2[C@@H](C(=O)O)C1` (single isomer, unassigned) [Example 6], the IC50 was 562 nM.

In the case of `Cc1nc(-c2nnn(C)c2COC(=O)N(C)C2CCCC2)ccc1O[C@H]1CCO[C@@H](C(=O)O)C1` [Example 36], the IC50 came to 713 nM.

`Cc1nc(-c2nnn(C)c2COC(=O)N(C)CC2CCC2)ccc1O[C@@H]1CC[C@H]2C(C(=O)O)[C@@H]12` (single isomer, unassigned) [Example 45]: the 50% inhibitory concentration (IC50) came out at 92 nM.

On to `Cc1nc(-c2nnn(C)c2COC(=O)N(C)CC2CCC2)ccc1O[C@H]1CC2C[C@H]2[C@@H](C(=O)O)C1` (mixture of isomers) [Example 7, (±)-(1R,2S,4S,6R)-4-((6-(5-((((cyclobutylmethyl)(methyl)carbamoyl)oxy)methyl)-1-methyl-1H-1,2,3-triazol-4-yl)-2-methylpyridin-3-yl)oxy)bicyclo[4.1.0]heptane-2-carboxylic Acid], for which the IC50 came out at 40 nM.

Consider `CCCN(C)C(=O)OCc1c(-c2ccc(O[C@@H]3COC[C@@H](C(=O)O)C3)c(C)n2)nnn1C` (racemic) [Example 17, (±)-trans-5-((2-methyl-6-(1-methyl-5-(((methyl(propyl)carbamoyl)oxy)methyl)-1H-1,2,3-triazol-4-yl)pyridin-3-yl)oxy)tetrahydro-2H-pyran-3-carboxylic Acid, TFA Salt], for which the IC50 was found to be 931 nM.

In the case of `CN(CC1CCC1)C(=O)OCc1c(-c2ccc(OC3CC4C(C3)C4C(=O)O)cn2)nnn1C` (stereo not drawn) [Example 66], the IC50 worked out at 322 nM.

In the case of `Cc1nc(-c2nnn(C)c2COC(=O)N(C)C2CCCC2)ccc1O[C@H]1CCO[C@H](C(=O)O)C1` [Example 39], the IC50 turned out to be 313 nM.

`Cc1nc(-c2nnn(C)c2COC(=O)N(C)CC2CCC2)ccc1OC1CC[C@H]2C(C(=O)O)[C@@H]12` (mixture of isomers) [Example 41, (±)-(1S,2R,5R)-2-((6-(5-((((cyclobutylmethyl)(methyl)carbamoyl)oxy)methyl)-1-methyl-1H-1,2,3-triazol-4-yl)-2-methylpyridin-3-yl)oxy)bicyclo[3.1.0]hexane-6-carboxylic Acid]: the IC50 amounted to 19 nM.

As to `Cc1nc(-c2nnn(C)c2COC(=O)N(C)CC2CCC2)ccc1O[C@H]1CC[C@@H]2[C@@H](C(=O)O)[C@@H]21` (single isomer, unassigned) [Example 46], the IC50 was 2010 nM.

As for `CN(C(=O)OCc1c(-c2ccc(OC3CC4C(C3)C4C(=O)O)cn2)nnn1C)C1CCCC1` (stereo not drawn) [Example 65], the half-inhibitory concentration (IC50) turned out to be 440 nM.

As for `Cc1nc(-c2nnn(C)c2Cn2nnc(CC3CCCC3)n2)ccc1O[C@@H]1COC[C@@H](C(=O)O)C1` (racemic) [Example 24, (±)-trans-5-((6-(5-((5-(cyclopentylmethyl)-2H-tetrazol-2-yl)methyl)-1-methyl-1H-1,2,3-triazol-4-yl)-2-methylpyridin-3-yl)oxy)tetrahydro-2H-pyran-3-Carboxylic Acid, TFA Salt], the IC50 amounted to 420 nM.

`Cc1nc(-c2nnn(C)c2COC(=O)N(C)CC2CCC2)ccc1O[C@@H]1CCC[C@@]2(C(=O)O)C[C@@H]12` (racemic) [Example 10, (±)-(1R,5R,6R)-5-((6-(5-((((cyclobutylmethyl)(methyl)carbamoyl)oxy)methyl)-1-methyl-1H-1,2,3-triazol-4-yl)-2-methylpyridin-3-yl)oxy)bicyclo[4.1.0]heptane-1-carboxylic Acid]: the IC50 stood at 188 nM.

Take `CCCCN(C)C(=O)OCc1c(-c2ccc(O[C@H]3CCO[C@H](C(=O)O)C3)c(C)n2)nnn1C` [Example 37]: the IC50 was determined as 225 nM.

As for `CCCN(C)C(=O)OCc1c(-c2ccc(O[C@@H]3CC[C@H]4C(C(=O)O)[C@@H]34)c(C)n2)nnn1C` (mixture of isomers) [Example 51, (±)-(1S,2R,5R,6R)-2-((2-methyl-6-(1-methyl-5-(((methyl(propyl)carbamoyl)oxy)methyl)-1H-1,2,3-triazol-4-yl)pyridin-3-yl)oxy)bicyclo[3.1.0]hexane-6-carboxylic Acid], the IC50 is 724 nM.

With `CCCOc1ccnc(NCc2c(-c3ccc(O[C@@H]4CC[C@H]5C(C(=O)O)[C@@H]45)c(C)n3)nnn2C)n1` (stereo partly drawn) [Example 57], the IC50 turned out to be 35 nM.

As for `Cc1nc(-c2nnn(C)c2CNC(=O)OCC(C)(C)C)ccc1O[C@@H]1CCC2C(C(=O)O)C21` (stereo partly drawn) [Example 54], the IC50 amounted to 275 nM.

Another assay deals with IPF patients.
Assay: not given
To be noted: 26-week clinical trial in IPF patients; cited from earlier work.
For `Cc1noc(-c2ccc(-c3ccc(C4(C(=O)O)CC4)cc3)cc2)c1NC(=O)O[C@H](C)c1ccccc1` [BMS-986020], the “rate of FVC (forced vital capacity) decline” value is “significantly reduce”.
